Assay results reported in PMC12131194, “Rational design, synthesis, and evaluation of novel polypharmacological compounds targeting NaV1.5, KV1.5, and K2P channels for atrial fibrillation” (The Journal of Biological Chemistry, 2025).

Target: T1, Kir2.1 (Rattus norvegicus, UniProt Q64273)
T1 construct: Kir2.1 (KCNJ2, NM_017296); expressed in transfected cells; host or cells: Xenopus laevis oocytes injected with cRNA
T1 sequence (Q64273 1-427): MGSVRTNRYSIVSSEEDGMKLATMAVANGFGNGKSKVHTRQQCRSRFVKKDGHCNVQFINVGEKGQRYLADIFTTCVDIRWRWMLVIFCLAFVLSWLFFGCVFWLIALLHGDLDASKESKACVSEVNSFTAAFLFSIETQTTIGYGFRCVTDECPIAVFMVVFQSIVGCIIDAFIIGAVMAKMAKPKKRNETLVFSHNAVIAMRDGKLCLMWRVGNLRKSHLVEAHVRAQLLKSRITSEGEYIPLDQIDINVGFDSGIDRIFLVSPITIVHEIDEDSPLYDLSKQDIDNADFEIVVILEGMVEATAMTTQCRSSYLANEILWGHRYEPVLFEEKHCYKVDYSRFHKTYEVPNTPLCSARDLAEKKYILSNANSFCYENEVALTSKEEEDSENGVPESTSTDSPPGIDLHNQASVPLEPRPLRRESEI
Experiment: TEVC selectivity in X. laevis oocytes, Kir2.1
Format: cell-based
Settings: mean ± SD, n = 3, read-out: Effect on Kir2.1 (inhibition)
Experimental: After confirming compound 6f simultaneous blockade of TASK-1, KV1.5, and NaV1.5, other cardiac channels (Kir2.1, TREK-1, TASK-4) were tested for selectivity at 100 μM (Fig. 8).
To obtain X. laevis oocytes, the frogs were anesthetized with 2 g/L of tricaine methanesulfonate, and the ovarian lobes were mechanically separated with forceps. The oocytes were incubated for 120 min in an OR2 solution containing in mM: NaCl 82.5, KCl 2, MgCl2 1, HEPES 5 (pH 7.5) supplemented with 2 mg/ml of collagenase II (Sigma) to remove residual connective tissue and obtain individual oocytes. […]
In order to overexpress the channel in the oocyte, each of the channels to be measured was subcloned (complementary DNA (cDNA); human TASK-1 (KCNK3, NM_002246), h KV1.5 (KCNA5, NM_002234), h NaV1.5 (hH1, M77235), TASK-4/TALK-2 (KCNK17, NM_AF358910), TREK-1 (KCNK2, AF004711) and Kir2.1 (KCNJ2, NM_017296) into pSGEM, pBF1 or pSP64 expression vector, and the cDNA was linearized with NheI or MluI. Complementary RNA (cRNA) was synthesized with the mMESSAGE mMACHINE-Kit (Ambion). The quality of the cRNA was tested on an agarose gel by electrophoresis. cRNA was quantified using a UV-Vis spectrophotometer (NanoDrop 2000). […] After this time, the overexpression of each channel was monitored through electrophysiology. […]

An inhibition at 100 µM of -1.01% was found for `CCCCN(CCCC)CC(=O)Nc1ccc(OC)cc1OC` [Compound 6f, 2-(dibutylamine)-N-(2,4-dimethoxiphenyl)acetamide] in this work.
